From patent publication US8802597B2, “Herbicidal pyrimidines” (E I du Pont de Nemours and Company, priority 2003, dated 2014)
Read-outs that look alike come from different tables or passages of the source.

Legend:
Assay in all cases: Test C pre/postemergence
Assay type in all cases: in vivo
[1] = test system: Surinam grass (Brachiaria decumbens); details: Urochloa decumbens; for pest or weed control at 125 g/ha: 125 g ai/ha; for pest or weed control at 31 g/ha: 31 g ai/ha; for pest or weed control at 62 g/ha: 62 g ai/ha; for pest or weed control at 250 g/ha: 250 g ai/ha
Procedure, shortened: (§1)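 Test compounds, formulated in a non-phytotoxic solvent mix with surfactant, were applied to freshly planted seeds and, at the same time, to emerged plants at 1- to 4-leaf stage (2 to 18 cm). After 12 to 14 days in the greenhouse, response was scored visually versus controls, 0 = no effect, 100 = complete control.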

[2] = test system: cocklebur (Xanthium strumarium); details: Xanthium strumarium; for pest or weed control at 31 g/ha: 31 g ai/ha; for pest or weed control at 62 g/ha: 62 g ai/ha; for pest or weed control at 125 g/ha: 125 g ai/ha; for pest or weed control at 250 g/ha: 250 g ai/ha
Procedure, shortened: as §1

[3] = test system: common (oilseed) sunflower (Helianthus annuus); details: Helianthus annuus, pre-emergence, Preemergence, read-out: Plant response rating, Sunflower
Procedure, shortened: as §1

[4] = test system: common ragweed (Ambrosia elatior); details: Ambrosia artemisiifolia; for pest or weed control at 31 g/ha: 31 g ai/ha; for pest or weed control at 62 g/ha: 62 g ai/ha; for pest or weed control at 125 g/ha: 125 g ai/ha; for pest or weed control at 250 g/ha: 250 g ai/ha
Procedure, shortened: as §1

[5] = test system: corn (Zea mays); details: Zea mays; for Corn plant response rating (crop injury, 0 = no effect, 100 = complete kill) at 31 g/ha: 31 g ai/ha; for Corn plant response rating (crop injury, 0 = no effect, 100 = complete kill) at 62 g/ha: 62 g ai/ha; for Corn plant response rating (crop injury, 0 = no effect, 100 = complete kill) at 125 g/ha: 125 g ai/ha; for Corn plant response rating (crop injury, 0 = no effect, 100 = complete kill) at 250 g/ha: 250 g ai/ha
Procedure, shortened: as §1

[6] = test system: crabgrass (Digitaria sanguinalis); details: Digitaria sanguinalis; for pest or weed control at 31 g/ha: 31 g ai/ha; for pest or weed control at 62 g/ha: 62 g ai/ha; for pest or weed control at 125 g/ha: 125 g ai/ha; for pest or weed control at 250 g/ha: 250 g ai/ha
Procedure, shortened: as §1

[7] = test system: goosegrass (Eleusine indica); details: Eleusine indica, post-emergence, Postemergence
Procedure, shortened: as §1

[8] = post-emergence, Postemergence, scale 0 to 100 (0 no effect, 100 complete control), read-out: Surinam Grass plant response rating
[9] = pre-emergence, Preemergence, scale 0 to 100, 0 no effect, 100 complete control, read-out: Plant response rating, Surinam Grass
[10] = pre-emergence, Preemergence, scale 0 to 100, read-out: Plant response rating, Surinam Grass
[11] = post-emergence, Postemergence, scale 0 to 100 (0 no effect, 100 complete control), read-out: Cocklebur plant response rating
[12] = pre-emergence, Preemergence, scale 0 to 100, 0 no effect, 100 complete control, read-out: Plant response rating, Cocklebur
[13] = pre-emergence, Preemergence, scale 0 to 100, read-out: Plant response rating, Cocklebur
[14] = post-emergence, Postemergence, scale 0 to 100 (0 no effect, 100 complete control), read-out: Ragweed plant response rating
[15] = pre-emergence, Preemergence, scale 0 to 100, 0 no effect, 100 complete control, read-out: Plant response rating, Ragweed
[16] = pre-emergence, Preemergence, scale 0 to 100, read-out: Plant response rating, Ragweed
[17] = post-emergence, Postemergence, scale 0 to 100 (0 no effect, 100 complete control), read-out: Corn plant response rating
[18] = pre-emergence, Preemergence, scale 0 to 100, 0 no effect, 100 complete control, read-out: Plant response rating, Corn
[19] = post-emergence, Postemergence, scale 0 to 100 (0 no effect, 100 complete control), read-out: Crabgrass plant response rating
[20] = pre-emergence, Preemergence, scale 0 to 100, 0 no effect, 100 complete control, read-out: Plant response rating, Crabgrass
[21] = pre-emergence, Preemergence, scale 0 to 100, read-out: Plant response rating, Crabgrass

CCOC(=O)c1nc(C2CC2)nc(N)c1F [Compound 30]
pest or weed control at 125 g/ha [1, 8]: 0% | pest or weed control at 31 g/ha ([1]; post-emergence, Postemergence, read-out: Plant response rating (scale of 0 to 100), Surinam Grass): 0% | pest or weed control at 62 g/ha [1, 8]: 0% | pest or weed control at 250 g/ha ([1]; post-emergence, Postemergence, scale 0 to 100, read-out: Plant response rating, Surinam Grass): 35% | pest or weed control at 31 g/ha [1, 9]: 0% | pest or weed control at 62 g/ha [1, 9]: 0% | pest or weed control at 125 g/ha [1, 10]: 0% | pest or weed control at 250 g/ha [1, 10]: 20% | pest or weed control at 31 g/ha ([2]; post-emergence, Postemergence, read-out: Plant response rating (scale of 0 to 100), Cocklebur): 90% | pest or weed control at 62 g/ha [2, 11]: 95% | pest or weed control at 125 g/ha [2, 11]: 100% | pest or weed control at 250 g/ha ([2]; post-emergence, Postemergence, scale 0 to 100, read-out: Plant response rating, Cocklebur): 100% | pest or weed control at 31 g/ha [2, 12]: 0% | pest or weed control at 62 g/ha [2, 12]: 60% | pest or weed control at 125 g/ha [2, 13]: 85% | pest or weed control at 250 g/ha [2, 13]: 90% | pest or weed control at 31 g/ha ([3]; 31 g ai/ha, scale 0 to 100, 0 no effect, 100 complete control): 20% | pest or weed control at 62 g/ha ([3]; 62 g ai/ha, scale 0 to 100, 0 no effect, 100 complete control): 80% | pest or weed control at 125 g/ha ([3]; 125 g ai/ha, scale 0 to 100): 90% | pest or weed control at 250 g/ha ([3]; 250 g ai/ha, scale 0 to 100): 90% | pest or weed control at 31 g/ha ([4]; post-emergence, Postemergence, read-out: Plant response rating (scale of 0 to 100), Ragweed): 60% | pest or weed control at 62 g/ha [4, 14]: 80% | pest or weed control at 125 g/ha [4, 14]: 85% | pest or weed control at 250 g/ha ([4]; post-emergence, Postemergence, scale 0 to 100, read-out: Plant response rating, Ragweed): 90% | pest or weed control at 31 g/ha [4, 15]: 30% | pest or weed control at 62 g/ha [4, 15]: 85% | pest or weed control at 125 g/ha [4, 16]: 90% | pest or weed control at 250 g/ha [4, 16]: 100% | Corn plant response rating (crop injury, 0 = no effect, 100 = complete kill) at 31 g/ha ([5]; post-emergence, Postemergence, read-out: Plant response rating (scale of 0 to 100), Corn): 0% | Corn plant response rating (crop injury, 0 = no effect, 100 = complete kill) at 62 g/ha [5, 17]: 0% | Corn plant response rating (crop injury, 0 = no effect, 100 = complete kill) at 125 g/ha [5, 17]: 0% | Corn plant response rating (crop injury, 0 = no effect, 100 = complete kill) at 250 g/ha ([5]; post-emergence, Postemergence, scale 0 to 100): 50% | Corn plant response rating (crop injury, 0 = no effect, 100 = complete kill) at 31 g/ha [5, 18]: 0% | Corn plant response rating (crop injury, 0 = no effect, 100 = complete kill) at 62 g/ha [5, 18]: 0% | Corn plant response rating (crop injury, 0 = no effect, 100 = complete kill) at 125 g/ha ([5]; pre-emergence, Preemergence, scale 0 to 100, read-out: Plant response rating, Corn): 0% | Corn plant response rating (crop injury, 0 = no effect, 100 = complete kill) at 250 g/ha ([5]; pre-emergence, Preemergence, scale 0 to 100): 0% | pest or weed control at 31 g/ha ([6]; post-emergence, Postemergence, read-out: Plant response rating (scale of 0 to 100), Crabgrass): 0% | pest or weed control at 62 g/ha [6, 19]: 0% | pest or weed control at 125 g/ha [6, 19]: 5% | pest or weed control at 250 g/ha ([6]; post-emergence, Postemergence, scale 0 to 100, read-out: Plant response rating, Crabgrass): 50% | pest or weed control at 31 g/ha [6, 20]: 0% | pest or weed control at 62 g/ha [6, 20]: 0% | pest or weed control at 125 g/ha [6, 21]: 70% | pest or weed control at 250 g/ha [6, 21]: 85% | pest or weed control at 31 g/ha ([7]; 31 g ai/ha, read-out: Plant response rating (scale of 0 to 100), Goosegrass): 0% | pest or weed control at 62 g/ha ([7]; 62 g ai/ha, scale 0 to 100 (0 no effect, 100 complete control), read-out: Goosegrass plant response rating): 0%
